Consider nine compounds from patent publication US10004701B2, “Methods and compositions for treating infection” (UNIVERSITY OF ROCHESTER, priority 2012, dated 2018).

Molecules are shown by their SMILES. Counter-ions that a name gives are not always drawn. Like-named read-outs stand apart in the source and are kept apart here.

What all share (experiment): AK assay 384-well format, Prestwick library screening
The subject of one assay is E. faecium. In kind it is cell-based, Enterococcus faecium. The settings on record: 50 μM final drug concentration; for fold induction at 50 µM: Enterococcus faecium, 3 h.
Assay [1] concerns S. aureus strain USA300-0114. In kind it is cell-based, Staphylococcus aureus. The settings on record: 50 μM final drug concentration; for fold induction at 50 µM: Staphylococcus aureus, USA300, 3 h.
The subject of a further assay is K. pneumoniae. The format is cell-based, Klebsiella pneumoniae. The settings on record: 50 μM final drug concentration; for fold induction at 50 µM: Klebsiella pneumoniae, 3 h.
Assay [2] deals with A. baumannii strain 98-37-09. The format is cell-based, Acinetobacter baumannii. The settings on record: 50 μM final drug concentration; for fold induction at 50 µM: Acinetobacter baumannii, 983709, 3 h.
The next assay deals with P. aeruginosa. The format is cell-based, Pseudomonas aeruginosa. The conditions noted are these: 50 μM final drug concentration; for fold induction at 50 µM: Pseudomonas aeruginosa, 3 h.
In the next assay the test system is E. cloacae. The format is cell-based, Enterobacter cloacae. The settings on record: 50 μM final drug concentration; for fold induction at 50 µM: Enterobacter cloacae, 3 h.
In another assay the test system is E. coli. The format is cell-based, Escherichia coli. The settings on record: 50 μM final drug concentration; for fold induction at 50 µM: Escherichia coli, 3 h.
Where [3] appears, read: planktonic, cutoff for positive-scoring molecules 3-fold increase.
Where [4] appears, read: 384-well format, cutoff for positive-scoring molecules 3-fold increase, read-out: AK-based Prestwick Library Screening Results, E. faecium (increase in extracellular AK activity).
Setting [5] is: 384-well format, cutoff for positive-scoring molecules 3-fold increase, read-out: AK-based Prestwick Library Screening Results, S. aureus (increase in extracellular AK activity).
Where [6] appears, read: 384-well format, cutoff for positive-scoring molecules 3-fold increase, read-out: AK-based Prestwick Library Screening Results, K. pneumoniae (increase in extracellular AK activity).
Setting [7] is: 384-well format, cutoff for positive-scoring molecules 3-fold increase, read-out: AK-based Prestwick Library Screening Results, A. baumannii (increase in extracellular AK activity).
Where [8] appears, read: 384-well format, cutoff for positive-scoring molecules 3-fold increase, read-out: AK-based Prestwick Library Screening Results, P. aeruginosa (increase in extracellular AK activity).
Setting [9] is: 384-well format, cutoff for positive-scoring molecules 3-fold increase, read-out: AK-based Prestwick Library Screening Results, E. cloacae (increase in extracellular AK activity).
The mark [10] stands for this setting: 384-well format, cutoff for positive-scoring molecules 3-fold increase, read-out: AK-based Prestwick Library Screening Results, E. coli (increase in extracellular AK activity).
Where [11] appears, read: planktonic E. faecium, cutoff for positive-scoring molecules 3-fold increase.
Setting [12] is: planktonic S. aureus, cutoff for positive-scoring molecules 3-fold increase.
[13] abbreviates: planktonic K. pneumoniae, cutoff for positive-scoring molecules 3-fold increase.
Where [14] appears, read: planktonic A. baumannii, cutoff for positive-scoring molecules 3-fold increase.
Setting [15] is: planktonic P. aeruginosa, cutoff for positive-scoring molecules 3-fold increase.
[16] abbreviates: planktonic E. cloacae, cutoff for positive-scoring molecules 3-fold increase.
Where [17] appears, read: planktonic E. coli, cutoff for positive-scoring molecules 3-fold increase.

As to `Cl.OC1CCCCC1N1CCC(c2ccccc2)CC1` (stereo not drawn) [L(−)-vesamicol hydrochloride], the “AK-based Prestwick Library Screening Results, E. faecium (fold increase in extracellular AK activity)” value with E. faecium (setting [3]) was found to be 0.9. Moreover, the “AK-based Prestwick Library Screening Results, S. aureus (fold increase in extracellular AK activity)” value in assay [1] (setting [3]) amounted to 0.8. In the assay on K. pneumoniae (setting [3]), the “AK-based Prestwick Library Screening Results, K. pneumoniae (fold increase in extracellular AK activity)” value is 0.7. Also, the “AK-based Prestwick Library Screening Results, A. baumannii (fold increase in extracellular AK activity)” value in assay [2] (setting [3]) came to 0.8. Besides, the “AK-based Prestwick Library Screening Results, P. aeruginosa (fold increase in extracellular AK activity)” value in the assay with P. aeruginosa (setting [3]) was 0.8. Also, the “AK-based Prestwick Library Screening Results, E. cloacae (fold increase in extracellular AK activity)” value with E. cloacae (setting [3]) is recorded as 1.2. Further, in the assay with E. coli (setting [3]), the “AK-based Prestwick Library Screening Results, E. coli (fold increase in extracellular AK activity)” value was found to be 0.8.
In the case of `COc1ccc2cc([C@H](C)C(=O)O)ccc2c1` [Naproxen], the fold induction at 50 µM was determined as 1 in the assay on E. faecium (setting [4]); 0.8 in assay [1] (setting [5]); 0.9 in the assay with K. pneumoniae (setting [6]); 1.1 in assay [2] (setting [7]); 1 with P. aeruginosa (setting [8]); 1.4 in the assay on E. cloacae (setting [9]). For the same compound, the fold induction at 50 µM in the assay on E. coli (setting [10]) came out at 1.2.
As to `CC(C)(Oc1ccc(Cl)cc1)C(=O)O` [Clofibric acid], the fold induction at 50 µM was 1.1 with E. faecium (cutoff for positive-scoring molecules 3-fold increase, read-out: AK-based Prestwick Library Screening Results, E. faecium (fold increase in extracellular AK activity)); 1.4 in assay [1] (cutoff for positive-scoring molecules 3-fold increase, read-out: AK-based Prestwick Library Screening Results, S. aureus (fold increase in extracellular AK activity)); 1.1 with K. pneumoniae (cutoff for positive-scoring molecules 3-fold increase, read-out: AK-based Prestwick Library Screening Results, K. pneumoniae (fold increase in extracellular AK activity)); 1.3 in assay [2] (cutoff for positive-scoring molecules 3-fold increase, read-out: AK-based Prestwick Library Screening Results, A. baumannii (fold increase in extracellular AK activity)); 1.2 in the assay on P. aeruginosa (cutoff for positive-scoring molecules 3-fold increase, read-out: AK-based Prestwick Library Screening Results, P. aeruginosa (fold increase in extracellular AK activity)); 1.5 in the assay on E. cloacae (cutoff for positive-scoring molecules 3-fold increase, read-out: AK-based Prestwick Library Screening Results, E. cloacae (fold increase in extracellular AK activity)). Moreover, the fold induction at 50 µM in the assay with E. coli (cutoff for positive-scoring molecules 3-fold increase, read-out: AK-based Prestwick Library Screening Results, E. coli (fold increase in extracellular AK activity)) was determined as 1.2.
With `CN(C)CCOC(=O)C(c1ccccc1)C1(O)CCCC1` (stereo not drawn) [Cyclopentolate hydrochloride], the fold induction at 50 µM with E. faecium (planktonic E. faecium, positive cutoff 3-fold increase, read-out: AK-based Prestwick library screening result, E. faecium (fold increase in extracellular AK activity)) is 1; in assay [1] (planktonic S. aureus, positive cutoff 3-fold increase, read-out: AK-based Prestwick library screening result, S. aureus (fold increase in extracellular AK activity)), 1.1; in the assay on K. pneumoniae (planktonic K. pneumoniae, positive cutoff 3-fold increase, read-out: AK-based Prestwick library screening result, K. pneumoniae (fold increase in extracellular AK activity)), 1; in assay [2] (planktonic A. baumannii, positive cutoff 3-fold increase, read-out: AK-based Prestwick library screening result, A. baumannii (fold increase in extracellular AK activity)), 1; in the assay with P. aeruginosa (planktonic P. aeruginosa, positive cutoff 3-fold increase, read-out: AK-based Prestwick library screening result, P. aeruginosa (fold increase in extracellular AK activity)) it was 1.1; with E. cloacae (planktonic E. cloacae, positive cutoff 3-fold increase, read-out: AK-based Prestwick library screening result, E. cloacae (fold increase in extracellular AK activity)), 1.3. Besides, the fold induction at 50 µM in the assay with E. coli (planktonic E. coli, positive cutoff 3-fold increase, read-out: AK-based Prestwick library screening result, E. coli (fold increase in extracellular AK activity)) came to 1.2.
On to `CC(=O)c1ccc2c(c1)N(CCCN(C)C)c1ccccc1S2.O=C(O)/C=C\C(=O)O` [Acetopromazine maleate salt], for which the “AK-based Prestwick Library Screening Results, E. faecium (increase in extracellular AK activity)” value in the assay with E. faecium (setting [11]) is listed as 1.0. The “AK-based Prestwick Library Screening Results, S. aureus (increase in extracellular AK activity)” value in assay [1] (setting [12]) is recorded as 0.8. For the same compound, in the assay with K. pneumoniae (setting [13]), the “AK-based Prestwick Library Screening Results, K. pneumoniae (increase in extracellular AK activity)” value turned out to be 0.6. Further, the “AK-based Prestwick Library Screening Results, A. baumannii (increase in extracellular AK activity)” value in assay [2] (setting [14]) amounted to 0.8. Moreover, in the assay with P. aeruginosa (setting [15]), the “AK-based Prestwick Library Screening Results, P. aeruginosa (increase in extracellular AK activity)” value is reported as 0.7. Besides, the “AK-based Prestwick Library Screening Results, E. cloacae (increase in extracellular AK activity)” value in the assay on E. cloacae (setting [16]) amounted to 0.8. Further, in the assay on E. coli (setting [17]), the “AK-based Prestwick Library Screening Results, E. coli (increase in extracellular AK activity)” value stood at 0.8.
Take `COC(=O)[C@H]1[C@H]2C[C@@H]3c4[nH]c5cc(OC)ccc5c4CCN3C[C@H]2C[C@@H](OC(=O)/C=C/c2cc(OC)c(OC)c(OC)c2)[C@@H]1OC` [Rescinnamin]: the “AK-based Prestwick Library Screening Results, E. faecium (increase in extracellular AK activity)” value in the assay with E. faecium (setting [11]) was found to be 1.0. Besides, the “AK-based Prestwick Library Screening Results, S. aureus (increase in extracellular AK activity)” value in assay [1] (setting [12]) was determined as 0.3. Besides, the “AK-based Prestwick Library Screening Results, K. pneumoniae (increase in extracellular AK activity)” value in the assay on K. pneumoniae (setting [13]) is on record as 0.6. For the same compound, in assay [2] (setting [14]), the “AK-based Prestwick Library Screening Results, A. baumannii (increase in extracellular AK activity)” value is on record as 1.1. The “AK-based Prestwick Library Screening Results, P. aeruginosa (increase in extracellular AK activity)” value with P. aeruginosa (setting [15]) turned out to be 0.4. Further, the “AK-based Prestwick Library Screening Results, E. cloacae (increase in extracellular AK activity)” value in the assay with E. cloacae (setting [16]) came to 0.6. The “AK-based Prestwick Library Screening Results, E. coli (increase in extracellular AK activity)” value in the assay on E. coli (setting [17]) is given as 0.7.
In the case of `CC(=O)Oc1ccc(C(c2ccc(OC(C)=O)cc2)c2ccccn2)cc1` [Bisacodyl], the fold induction at 50 µM was found to be 1 in the assay with E. faecium (planktonic E. faecium, cutoff for positive-scoring molecules 3-fold increase, read-out: AK-based Prestwick Library Screening Results, E. faecium (increase in extracellular AK activity)); 0.5 in assay [1] (planktonic S. aureus, cutoff for positive-scoring molecules 3-fold increase, read-out: AK-based Prestwick Library Screening Results, S. aureus (increase in extracellular AK activity)); 0.6 with K. pneumoniae (planktonic K. pneumoniae, cutoff for positive-scoring molecules 3-fold increase, read-out: AK-based Prestwick Library Screening Results, K. pneumoniae (increase in extracellular AK activity)); 0.8 in assay [2] (planktonic A. baumannii, cutoff for positive-scoring molecules 3-fold increase, read-out: AK-based Prestwick Library Screening Results, A. baumannii (increase in extracellular AK activity)); 0.6 in the assay on P. aeruginosa (planktonic P. aeruginosa, cutoff for positive-scoring molecules 3-fold increase, read-out: AK-based Prestwick Library Screening Results, P. aeruginosa (increase in extracellular AK activity)); 0.9 in the assay on E. cloacae (planktonic E. cloacae, cutoff for positive-scoring molecules 3-fold increase, read-out: AK-based Prestwick Library Screening Results, E. cloacae (increase in extracellular AK activity)). Moreover, in the assay with E. coli (planktonic E. coli, cutoff for positive-scoring molecules 3-fold increase, read-out: AK-based Prestwick Library Screening Results, E. coli (increase in extracellular AK activity)), the fold induction at 50 µM worked out at 0.6.
For the compound `CCN(CC)C(C)CN1c2ccccc2Sc2ccccc21` (stereo not drawn) [Ethopropazine hydrochloride], the fold induction at 50 µM with E. faecium (planktonic, cutoff for positive-scoring molecules 3-fold increase, read-out: AK-based Prestwick Library Screening Results, E. faecium (fold increase in extracellular AK activity)) came to 0.9; in assay [1] (planktonic, cutoff for positive-scoring molecules 3-fold increase, read-out: AK-based Prestwick Library Screening Results, S. aureus (fold increase in extracellular AK activity)), 0.7; in the assay with K. pneumoniae (planktonic, cutoff for positive-scoring molecules 3-fold increase, read-out: AK-based Prestwick Library Screening Results, K. pneumoniae (fold increase in extracellular AK activity)) it was 0.8; in assay [2] (planktonic, cutoff for positive-scoring molecules 3-fold increase, read-out: AK-based Prestwick Library Screening Results, A. baumannii (fold increase in extracellular AK activity)) it was 1; in the assay on P. aeruginosa (planktonic, cutoff for positive-scoring molecules 3-fold increase, read-out: AK-based Prestwick Library Screening Results, P. aeruginosa (fold increase in extracellular AK activity)) it was 1; in the assay with E. cloacae (planktonic, cutoff for positive-scoring molecules 3-fold increase, read-out: AK-based Prestwick Library Screening Results, E. cloacae (fold increase in extracellular AK activity)), 1.3. In the assay on E. coli (planktonic, cutoff for positive-scoring molecules 3-fold increase, read-out: AK-based Prestwick Library Screening Results, E. coli (fold increase in extracellular AK activity)), the fold induction at 50 µM is 0.9.
For the compound `CN(C)C(=N)N=C(N)N` [Metformin hydrochloride], the fold induction at 50 µM turned out to be 0.8 with E. faecium (setting [4]); 0.4 in assay [1] (setting [5]); 0.4 with K. pneumoniae (setting [6]); 0.4 in assay [2] (setting [7]); 0.3 with P. aeruginosa (setting [8]); 0.3 in the assay on E. cloacae (setting [9]). In the assay with E. coli (setting [10]), the fold induction at 50 µM was found to be 0.5.
